According to patent publication US20230277444A1, “FORMULATIONS OF PTHrP ANALOGUES, TRANSDERMAL PATCHES THEREOF, AND USES THEREOF” (priority 2018, published 2023):

Columns and labels:
[1] = cynomolgus monkey, in vivo, sc
in vivo = settings: female, Chinese Cynomolgus, cynomolgus monkey, sc

AUC [1]: 131610
Cmax (in vivo): 3.34 ng/mL
Tmax (in vivo): 7 min
half-life (in vivo): 14 min
level at 5 min (in vivo): 1.9 ng/mL
level at 10 min (in vivo): 0.88 ng/mL
level at 20 min (in vivo): 0.542 ng/mL
level at 0.5 h (in vivo): 0.222 ng/mL
level at 1 h (in vivo): 0.12 ng/mL
SMILES: CC[C@H](C)[C@H](NC(=O)[C@H](CO)NC(=O)[C@H](CCCCN)NC(=O)CNC(=O)[C@H](CCCCN)NC(=O)[C@H](CC(=O)O)NC(=O)[C@H](Cc1cnc[nH]1)NC(=O)[C@H](CC(C)C)NC(=O)[C@H](CC(C)C)NC(=O)[C@H](CCC(N)=O)NC(=O)[C@H](Cc1cnc[nH]1)NC(=O)[C@H](CCC(=O)O)NC(=O)[C@H](CO)NC(=O)[C@@H](NC(=O)[C@H](C)N)C(C)C)C(=O)N[C@@H](CCC(N)=O)C(=O)N[C@@H](CC(=O)O)C(=O)N[C@@H](CC(C)C)C(=O)N[C@@H](CCCNC(=N)N)C(=O)N[C@@H](CCCNC(=N)N)C(=O)N[C@@H](CCCNC(=N)N)C(=O)N[C@@H](CCC(=O)O)C(=O)N[C@@H](CC(C)C)C(=O)N[C@@H](CC(C)C)C(=O)N[C@@H](CCC(=O)O)C(=O)N[C@@H](CCCCN)C(=O)N[C@@H](CC(C)C)C(=O)N[C@@H](CC(C)C)C(=O)NC(C)(C)C(=O)N[C@@H](CCCCN)C(=O)N[C@@H](CC(C)C)C(=O)N[C@@H](Cc1cnc[nH]1)C(=O)N[C@H](C(=O)N[C@@H](C)C(N)=O)[C@@H](C)O [Abaloparatide, [Glu^22,25, Leu^23,28,31, Aib^29, Lys^26,30]hPTHrP(1-34)NH2]
